According to paper PMC12073438, “Stereoselectivity of In Vivo Processes and Bioactivity of Farrerol Enantiomers” (Molecules, 2025):
Several values for one entry are separate records, joined by “and”; a condition that tells them apart may be missing. Equal entries are not always repeated. Where two headings read alike, the source gives them in different places. Marks after values point to notes of the source that are not given here.

Assay: Stereoselective pharmacokinetics in rat plasma
Format: in vivo, Sprague–Dawley rats
Conditions: for MRT last: read-out: MRT(0–t); for chiral transformation between enantiomers: single enantiomers orally administered (75 mg/kg)
Method: The pharmacokinetic data were optimally characterized by a noncompartmental model. The mean concentration-time profiles for the farrerol enantiomers are illustrated in Figure 3, along with the corresponding key pharmacokinetic parameters presented in Table 2.
Twenty-five rats were randomly divided into five experimental groups (A, B, C, D, and E). Groups A and B received farrerol racemate via intragastric administration at doses of 150 mg/kg and 75 mg/kg, respectively. Group C was administered 4 mg/kg of farrerol racemate through caudal intravenous administration. […] Blood samples (300 μL) were obtained from the orbital venous plexus into heparinized tubes at various time points: 0.25, 0.5, 1, 2, 3, 5, 7, 9, 12, and 24 h following gavage administration, and at 0.083, 0.167, 0.25, 0.5, 1, 1.5, 2, 2.5, 3, and 5 h post-intravenous administration. Plasma was separated by centrifugation (3000 rpm, 10 min) and stored at −80 °C until analysis.
A total of 150 μL of plasma and 50 μL of the internal standard solution were added to a 1.5 mL EP tube and mixed using a vortex for 30 s. Subsequently, 500 μL of ether was introduced, and the mixture was vortexed for 5 min. Following centrifugation at 10,000 rpm for 10 min, the resulting organic layer was carefully transferred to a separate tube. Each sample underwent two extraction processes. The resulting ether layer was then evaporated to dryness using a continuous air stream at room temperature. A 250 μL aliquot of methanol was employed to re-dissolve the residue, utilizing vortex mixing for 2 min. Following centrifugation at 14,000 rpm for 10 min, the supernatant was subsequently injected into the HPLC-MS system for analysis.
Stereoselective chromatographic analysis of farrerol enantiomers was conducted utilizing an ACQUITY UPLC I-Class UPLC system (Waters, Milford, MA, USA), which is equipped with a quaternary pump and an autosampler. The chiral separation was carried out employing a Chiralpak OJ-RH column (250 mm × 4.6 mm, 5 μm), which was obtained from Daicel Chemical Industries (Shanghai, China). The mobile phase consisted of ACN-H2O (60:40, v/v), and the constant flow rate was 0.5 mL/min. The column temperature was set at 25 °C, and the injection volume was 10 μL.
Mass detection was conducted using a triple quadrupole mass spectrometer (Waters Co., USA) equipped with an electrospray ionization (ESI) source. The detection of enantiomers and internal standards (IS) was carried out in multiple reaction monitoring (MRM) mode utilizing negative ionization. The m/z 299→179 for enantiomers and m/z 267→252 for IS were selected as detecting ions for quantitation. The collision energies (CE) were established at 22 eV and 20 eV, respectively. The primary mass spectrometry (MS) parameters were configured as follows: capillary voltage was set to 3.5 kV, ion source temperature was maintained at 150 °C, desolvation gas flow rate was 800 L/h, and the cone voltage (CV) was adjusted to 1.3 V.
Pharmacokinetic analysis was conducted utilizing the Drug and Statistics (DAS) 2.0 software provided by the Chinese Pharmacological Society. To assess the differences in pharmacokinetic parameters, the IC50 values of the evaluated CYP enzymes and the permeability coefficients between the two farrerol enantiomers, paired sample t-tests and independent sample t-tests were performed. Statistical significance was defined as * p < 0.05 and ** p < 0.01. All results are presented as mean values ± standard deviation (SD).

[1] = Sprague-Dawley, rat, plasma, iv, 4 mg/kg, i.v. of farrerol racemate (4 mg/kg)
[2] = Sprague-Dawley, rat, plasma, po, 150 mg/kg, i.g. of farrerol racemate (150 mg/kg)
[3] = i.g. of farrerol racemate (75 mg/kg)
[4] = i.g. of farrerol racemate (150 mg/kg)
[5] = i.g. of the single enantiomer (75 mg/kg)
[6] = i.v. of farrerol racemate (4 mg/kg)
[7] = oral 75 mg/kg farrerol racemate
[8] = Sprague-Dawley, rat, plasma, po, 75 mg/kg, i.g. of the single enantiomer (75 mg/kg)

Cc1c(O)c(C)c2c(c1O)C(=O)CC(c1ccc(O)cc1)O2 (single isomer, unassigned; (+)) [(+)-farrerol, 2,3-dihydro-5,7-dihydroxy-2-(4-hydroxyphenyl)-6,8-dimethyl-4-benzopyrone]
AUC(0-inf) [1]: 1.55 ± 0.056 µg·h/mL
AUC(0-t) [1]: 1.46 ± 0.0545 µg·h/mL
half-life [1]: 10.7 ± 0.1 h
Cmax (Sprague-Dawley, rat, plasma, iv, 4 mg/kg, i.v. of farrerol racemate (4 mg/kg), read-out: Cmax): 2.66 µg/mL
MRT last [1]: 2.7 ± 0.1 h
Tmax (Sprague-Dawley, rat, plasma, iv, 4 mg/kg, i.v. of farrerol racemate (4 mg/kg), read-out: Tmax): 0.08 h
MRT last (Sprague-Dawley, rat, plasma, po, 75 mg/kg, i.g. of farrerol racemate (75 mg/kg)): 6.27 ± 0.27 h
bioavailability [2]: 6.4 ± 0.04%
Cmax (Sprague-Dawley, rat, plasma, po, 150 mg/kg, i.g. of farrerol racemate (150 mg/kg), read-out: Cmax): 0.457 ± 0.0246 µg/mL
MRT last [2]: 5.98 ± 0.14 h
Tmax (Sprague-Dawley, rat, plasma, po, 150 mg/kg, i.g. of farrerol racemate (150 mg/kg), read-out: Tmax): 1.5 h
AUC(0–t) [3]: 2399 ng·h/mL and 2399.1 ± 102.3 ng·h/mL
AUC(0–∞) [3]: 6870.3 ± 511.4 ng·h/mL
Cmax [3]: 0.287 ± 0.0246 µg/mL
F [3]: 8.7 ± 0.7%
Tmax [3]: 3.00 h
t1/2 [3]: 19.2 ± 2.0 ** h
AUC(0–t) [4]: 3522.6 ± 146.0 ng·h/mL
AUC(0–∞) [4]: 13,885.5 ± 2550.4 ng/mL*h
t1/2 [4]: 22.9 ± 2.6 h
AUC(0–∞) [5]: 22,122.4 ± 1894.1 ng/mL*h
Cmax [5]: 1.1774 ± 0.0845 µg/mL
MRT(0–t) [5]: 9.12 ± 0.18 h
Tmax [5]: 5.00 h
t1/2 [5]: 10.4 ± 0.4 h
Cmax [6]: 2.6627 ± 0.2264 µg/mL
AUC0–t of (+)-farrerol relative to (−)-farrerol [7]: ~5.6 fold
Cmax of (+)-farrerol relative to (−)-farrerol [7]: about 3.5 fold
AUC0–t of (+)-farrerol relative to (−)-farrerol (oral 75 mg/kg of single enantiomers): ~2.61 fold
chiral transformation between enantiomers: no chiral transformation

Cc1c(O)c(C)c2c(c1O)C(=O)CC(c1ccc(O)cc1)O2 (single isomer, unassigned; (-)) [(−)-farrerol, 2,3-dihydro-5,7-dihydroxy-2-(4-hydroxyphenyl)-6,8-dimethyl-4-benzopyrone]
half-life [8]: 12 ± 0.5 h
MRT last [8]: 10.8 ± 0.47 h
AUC(0–t) [3]: 428.3 ± 88.2 ** ng/mL*h
AUC(0–∞) [3]: 1341.8 ± 337.6 ** ng/mL*h
Cmax [3]: 80.5 ± 7.5 ** ng/mL
F [3]: 2.3 ± 0.05 ** %
MRT(0–t) [3]: 5.61 ± 0.56 h
Tmax [3]: 1.00 * h
t1/2 [3]: 8.5 ± 1.5 ** h
AUC(0–t) [4]: 1622.6 ± 84.3 ** ng/mL*h
AUC(0–∞) [4]: 1837.8 ± 226.9 ** ng/mL*h
Cmax [4]: 390.0 ± 35.3 * ng/mL
F [4]: 4.3 ± 0.7 * %
MRT(0–t) [4]: 4.65 ± 0.06 h
Tmax [4]: 1.50 h
t1/2 [4]: 3.5 ± 0.4 ** h
AUC(0–t) [5]: 6746.8 ± 298.7 ng·h/mL
AUC(0–∞) [5]: 8572.4 ± 221.0 ng·h/mL
Cmax [5]: 0.5209 ± 0.0917 µg/mL
Tmax [5]: 2.00 ^# h
AUC(0–t) [6]: 1012.4 ± 88.1 ** ng/mL*h
AUC(0–∞) [6]: 1195.7 ± 49.7 ** ng/mL*h
Cmax [6]: 1695.0 ± 224.6 ** ng/mL
MRT(0–t) [6]: 3.48 ± 0.07 * h
Tmax [6]: 0.08 h
t1/2 [6]: 19.0 ± 3.7 * h
chiral transformation between enantiomers: no chiral transformation
